Consider six molecules from US20140249293A1, “Absent and Rare Peptides and Therapeutic Uses Thereof” (Boise State University, priority 2012, published 2014).

pIC50: −log10 of the molar value. Where two headings read alike, the source gives them in different places. Ends that are not written are not given here.

Series [1] relates to paclitaxel-resistant LnCap cells. Nature of the series: MTT assay of paclitaxel-resistant LnCap cells (reversal of paclitaxel resistance). In kind it is cell-based. The following applies: paclitaxel alone, even at 600 μM (data not shown). How it is done:
The 9R peptide (SEQ ID NO: 200; labeled “9” in FIG. 16) was tested for its ability to reverse paclitaxel (TAXOL™) resistance in paclitaxel-resistant LnCap cells.
Paclitaxel-resistant LnCaP cells were treated with the peptides for 120 hours, and incubated with MTT for 4 hours. The paclitaxel-resistant LnCap cells were resistant to paclitaxel even at 600 μM concentration (data not shown). Referring to FIG. 16, the paclitaxel-resistant LnCap cells were resistant to 9R at the 100 μM level (labeled **). However, the combination of paclitaxel (at little as 30 nM) and 9R (at little as 5 μM) killed the paclitaxel-resistant LnCap cells (labeled ***).

The subject of series [2] is LnCaP cells. The following applies: for pIC50: 48 h. How it is done:
LnCaP cells were treated with peptides 9R, 9S1, 120 (SEQ ID NO: 120) and a vehicle control. LnCaP cells were treated with the peptides for 48 hours, and incubated with MTT for 4 hours. For background level of absorbance, media alone was measured on the plate. […] Several concentrations of peptides were used to determine the IC50 of these peptides.
These cells were treated with an identical concentration (30 μM) of peptoprime peptide 120.

The test system of series [3] is mice. The following applies: cited from earlier work.
Series [4] deals with LnCaP cells. In kind it is cell-based. The following applies: 24 h. An excerpt:
The HCS MITOCHONDRIAL HEALTH KIT™ (available from Invitrogen) includes a dye that is taken up by healthy, actively respiring mitochondria. The uptake of this dye can be visualized with fluorescent confocal microscopy. FIGS. 9A-9C show control LnCaP cells treated only with the vehicle control (i.e., no peptide). The Hoechst dye stained nuclei of cells, whether they were alive or dead (Excitation/Emission maxima—Hoechst 33342: 350/461 nm). FIG. 9A is a panel showing all nuclei stained with Hoechst dye. FIG. 9B is a panel showing healthy mitochondria stained with MitoHealth dye. FIG. 9C is a panel showing the merged images of 9A and 9B. The mitochondrial health dye incorporated into the cells depends on mitochondrial membrane potential (excitation/emission maxima—MitoHealth stain: 550/580 nm). The HCS MITOCHONDRIAL HEALTH KIT™ (Invitrogen) was developed for simultaneous quantitative measurements of two cell health parameters in the same cell: mitotoxicity and cytotoxicity. The MitoHealth stain accumulated in mitochondria in live cells proportional to the mitochondrial membrane potential.
A range of peptide concentrations was applied to the LnCap cells. […] The cells were treated for 24 hrs.
A range of peptide concentrations was used to treat LnCap cells. […] The cells were incubated with peptide for 24 hrs.

The subject of series [5] is Normal (non-cancer) human lung fibroblast cells (WI-38). Nature of the series: MTT assay of WI-38 cells. The following applies: WI-38 normal fibroblasts, treated 1 hour, MTT 4 hours. The format is cell-based. How it is done: Normal (non-cancer) human lung fibroblast cells (WI-38) were also treated with the 9R, 9S1, and 120 peptides. WI-38 cells were treated with the peptides for 1 hour and followed by MTT for 4 hours. Although the treated cells show no decrease in MTT absorbance, this may have been due to the cells being plated at lower concentration, and may not have been actively dividing.

As a reminder, the pIC50 is the IC50 on a negative log10 scale, so that one unit is a factor of ten. High values mean a small IC50, low ones a large IC50.

On to `CC(=O)O[C@H]1C(=O)[C@@]2(C)[C@H]([C@H](OC(=O)c3ccccc3)[C@]3(O)C[C@H](OC(=O)[C@H](O)[C@@H](NC(=O)c4ccccc4)c4ccccc4)C(C)=C1C3(C)C)[C@]1(OC(C)=O)CO[C@@H]1C[C@@H]2O` [paclitaxel], for which the “sensitivity of paclitaxel-resistant LnCap cells (MTT)” value in series [1] is reported as “resistant”.
As for `OO` [peroxide, Hydrogen peroxide, reference compound], the “MTT absorbance value compared with control treatment cells” value in series [2] (LnCaP, treated 48 hours, MTT 4 hours) is “marked decrease”.
As to AQGV, the “recuperation after lethal exposure to radiation” value in series [3] is “shown promise in accelerating the recuperation”.
RRRRRNWMWC [Peptide 9R, RRRRRNWMWC]: the negative-log IC50 (pIC50) in series [4] was 4.00; in series [2] it was approximately 4.30. For the same molecule, the MTT absorbance result in series [5] is “no decrease”.
As for WCMNW [Peptide 9S1, WCMNW], the pIC50 is 4.52 in series [4] and approximately 4.52 in series [2]. In addition, the MTT absorbance result in series [5] is “no decrease”.
As for WFMHW [Peptide 120, WFMHW], the MTT absorbance entry in series [5] was “no effect”.
